Where a SMILES comes first, the peptide text is derived from it. [ ]: non-standard residue; d: D form. The star is where a group is joined. Dolaproine = CO[C@@H]([C@@H]1CCCN1)[C@@H](C)C(=O)O; Dil = CC[C@H](C)[C@H](NC)[C@@H](CC(=O)O)OC; X1 = C[C@@H](N*)[C@@H](O)c1ccccc1; NMeV = CN[C@H](C(=O)O)C(C)C
How the values were obtained:
[1] = Phase 1 dose-escalation study of PSMA ADC: pharmacokinetics (ELISA, LC/MS/MS); assay type: in vivo, human
Source text: An open-label, dose-escalation phase 1 study of PSMA ADC (comprising MMAE) in patients with taxane refractory metastatic prostate cancer (metCRPC) was initiated. The objectives of the study were to (1) determine a maximum tolerated dose (MTD) for PSMA ADC administered once every 3 weeks; (2) assess the safety, tolerability, pharmacokinetics (PK) and pharmacodynamics (PD) of PSMA ADC across the dose-escalation range; (3) assess immunogenicity; and (4) assess antitumor activity. PSMA ADC in saline was administered by IV infusion Q3 W for up to 4 cycles. Subjects received either 0.4 mg/kg, 0.7 mg/kg, 1.1 mg/kg, or 1.8 mg/kg or will receive 2.0 mg/kg (at weeks 1, 4, 7 and 10).
Adverse events, PK, PSA, circulating tumor cells, clinical disease progression and immunogenic response to PSMA ADC continued to be assessed (FIGS. 19-21). Serum concentrations of PSMA ADC and total antibody were measured by an enzyme-linked immunosorbent assay (ELISA) method, and free MMAE was measured by liquid chromatography/mass spectrometry/mass spectrometry (LC/MS/MS) method. Individual patients report bone pain reduction as described below.

[2] = tested on: hormone-refractory prostate cancer; details: cited from earlier work
C4-2 cells [3] = experiment: Single C4-2 xenograft mouse given docetaxel, then switched to PSMA ADC after relapse; assay type: in vivo, nude mouse
Method: The in vivo therapeutic efficacy of PSMA ADC in a subcutaneous xenograft model of human prostate cancer was assessed. […] C4-2 is an androgen-independent human prostate cancer cell line. At day 11, the tumor size of each mouse was measured, by length and width in millimeters, using a caliper (Mitutoyo, Aurora, Ill.). The tumor volume was calculated using the following formula: Volume(mm^3)=[(Length)×(Width)^2]/2
It was given 12 doses of docetaxel, IP, at 12 mg/kg weekly. As shown in FIG. 3 and Table 2, the animal initially responded to the docetaxel treatment, the tumor volume was reduced to ˜300 mm^3 at day 60, but then it progressed to ˜800 mm^3 at day 100. The treatment of docetaxel was stopped, and PSMA ADC was given IV at 6 mg/kg for an additional 12 doses, weekly. […] PSMA ADC can treat tumors that fail docetaxel treatment.

C4-2 cells [4] = experiment: C4-2 xenograft, PSMA ADC after docetaxel treatment failure (Example 3); assay type: in vivo, athymic nude mice
Method: An experiment (FIG. 10) was designed to evaluate PSMA ADC effectiveness after docetaxel treatment failure. […] At day 14, animals having a tumor volume between 100-200 mm^3 were randomized (randomization #1) into two treatment arms: (1) vehicle control (PBS buffer, n=10); (2) docetaxel at 2 mg/kg/IV weekly (n=50) according to tumor volume. The mean tumor volume was 138.0 and 138.1 mm^3 for the vehicle control and docetaxel treatment groups, respectively, at randomization.
All animals then received intravenous injections of PBS or docetaxel (Sigma, St. Louis, Mo.) at 2 mg/kg via tail vein in a volume of 0.1 mL. Tumor sizes were measured twice per week after tumor implantation, and the average tumor volume for the two groups before the second randomization was initiated were plotted (FIG. 11).
Animals were randomized into these two treatment subgroups continuously over the period of 28 days to 70 days post tumor implantation. By the end of day 70, there were 28 mice whose tumor volume had exceeded 400 mm^3, with 14 mice randomized into the PSMA ADC treatment subgroup (mean tumor volume of 695 mm^3 and 14 mice randomized into the continued docetaxel treatment subgroup (mean tumor volume of 642 mm^3 with a p-value of 0.28 (student t-test)).
The effect of PSMA ADC treatment on tumor growth after docetaxel failure was assessed by comparing tumor reduction after the second randomization. […]

C4-2 cells [5] = tested on: C4-2 cells
Method: Male athymic nude mice, 6-8 weeks old, obtained from Charles River Laboratories, Inc., were implanted with Matrigel subcutaneously into the right flank of each mouse with 5 million C4-2 cells (androgen-independent human prostate cancer cell line). At day 14, tumor size was measured by length and width in mm (millimeter). The volume was calculated using the formula: volume (mm^3)=[(length)×(width)^2]/2. […] Animals were dosed weekly through the tail vein.
When the tumor volume of an animal in the docetaxel treatment group exceeded 400 mm^3, this animal was randomized, at a 1:1 ratio, into one of the two treatment subgroups: one group continued to receive docetaxel at 2 mg/kg weekly (n=18), and the second group was switched to PSMA ADC treatment at 6 mg/kg/IV weekly (n=18). Mice whose tumors durably responded to docetaxel (≦400 mm^3) continued to receive docetaxel at 2 mg/kg/IV weekly. Treatment effects were assessed by measuring tumor volume and overall survival. Animal body weight was also measured. Animals with tumor size ≧2000 mm^3 were sacrificed.

Row | SMILES | exposure to free MMAE versus dose ([1]; after IV PSMA ADC 0.4-1.8 mg/kg) | exposure to free MMAE relative to PSMA ADC ([1]; after IV PSMA ADC, serum, LC/MS/MS) | increase in survival ([2]; docetaxel (Taxotere) in combination with prednisone, advanced prostate cancer) | survival benefit ([2]; docetaxel in combination with prednisone) | tumor volume (C4-2 cells [3]; day 60, docetaxel IP 12 mg/kg weekly, start ~500 mm^3 at day 21) | tumor volume (C4-2 cells [3]; day 100, progressed on docetaxel IP 12 mg/kg weekly) | tumor volume course after second randomization (docetaxel failure, >400 mm^3) (C4-2 cells [4]; PSMA ADC 6 mg/kg IV weekly or continued docetaxel 2 mg/kg) | tumor growth compared to vehicle control (C4-2 cells [4]; docetaxel 2 mg/kg IV weekly, n=50, before second randomization, by day 21 p=0.025) | tumor size of individual animals after second randomization (C4-2 cells [5]; PSMA ADC (panel A) or continued docetaxel (panel B)) | average body weight change post second randomization (C4-2 cells [5]; PSMA ADC versus continued docetaxel, p<0.001) | median survival post second randomization (C4-2 cells [5]; continued docetaxel 2 mg/kg weekly, n=18) | animals sacrificed due to large tumors (>2,000 mm^3) (C4-2 cells [5]; continued docetaxel treatment group, day 157 post second randomization)
1 | CC[C@H](C)[C@@H]([C@@H](CC(=O)N1CCC[C@H]1[C@H](OC)[C@@H](C)C(=O)N[C@H](C)[C@@H](O)c1ccccc1)OC)N(C)C(=O)[C@@H](NC(=O)[C@@H](NC)C(C)C)C(C)C [MMAE, monomethylauristatin norephedrine] (H-[NMeV]V[Dil][Dolaproine]-X1) | dose proportional | < 0.1% |  |  |  |  |  |  |  |  |  | 
2 | CC(=O)O[C@@]12CO[C@@H]1C[C@H](O)[C@@]1(C)C(=O)[C@H](O)C3=C(C)[C@@H](OC(=O)[C@H](O)[C@@H](NC(=O)OC(C)(C)C)c4ccccc4)C[C@@](O)([C@@H](OC(=O)c4ccccc4)[C@H]21)C3(C)C [docetaxel] |  |  | 2-3 months | 2.4 month | ~300 mm^3 | ~800 mm^3 | grew continuously | reduced tumor growth compared to control | tumors continued to progress except in one animal | lost weight | 45 days | 16 of 18

Reference: US9242012B2, “Methods for killing PSMA-expressing, taxane-resistant cancer cells” (PSMA Development Company, LLC, priority 2008, dated 2016)
